Columns and labels:
OAT3 = biological target: T1, OAT3 (Homo sapiens, UniProt Q8TCC7); settings: cited from earlier work
T1 sequence (Q8TCC7 1-542): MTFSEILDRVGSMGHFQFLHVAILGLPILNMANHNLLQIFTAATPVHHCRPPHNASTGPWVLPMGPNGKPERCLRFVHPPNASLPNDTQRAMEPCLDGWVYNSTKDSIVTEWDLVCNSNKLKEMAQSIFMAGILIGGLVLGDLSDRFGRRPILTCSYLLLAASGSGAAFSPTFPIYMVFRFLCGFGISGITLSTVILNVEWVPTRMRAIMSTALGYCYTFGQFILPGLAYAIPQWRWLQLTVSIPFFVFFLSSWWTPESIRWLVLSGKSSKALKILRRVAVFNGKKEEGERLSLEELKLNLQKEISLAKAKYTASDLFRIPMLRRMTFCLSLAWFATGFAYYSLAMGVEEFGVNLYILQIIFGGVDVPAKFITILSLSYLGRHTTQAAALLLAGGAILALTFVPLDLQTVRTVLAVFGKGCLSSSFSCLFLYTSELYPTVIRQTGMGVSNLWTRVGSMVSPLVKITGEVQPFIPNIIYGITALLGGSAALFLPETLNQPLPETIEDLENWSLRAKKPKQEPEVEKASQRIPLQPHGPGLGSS

PgP = biological target: T2, PgP (Homo sapiens, UniProt P08183); test: Cellular transwell monolayer efflux assay, MDCK cells transfected with TREx-PgP; assay type: in vitro ADME
T2 construct: expressed in transfected cells; host or cells: MDCK cells
Protocol: A third type of efflux transporter assay is the cellular transwell monolayer efflux assay. […] The cells form a polarized monolayer. The transwell dishes have apical and basolateral chambers that are separated by the filter membrane on which the polarized monolayer is situated. Assays are performed by placing a test compound in either the apical or basolateral chamber, followed by sampling the opposite chamber after a predetermined period of time such as 60-120 minutes and measuring the amount of the test compound. The test compound can be measured by methods such as radiolabel detection or LC-MS-MS analysis. Assays are performed in the presence and absence of an efflux transporter inhibitor or competitor. Efflux transporter inhibitors or competitors increase apical to basolateral transport and decrease basolateral to apical transport of compounds that are efflux transporter substrates. Apparent permeability (Papp) of test compounds is measured. […] Test compounds that generate ratios between 1.5 and 2.0 require additional testing to determine if they are efflux transporter substrates.
MDCK cells transfected with the tetracycline-inducible TREx-PgP expression vector were seeded on polycarbonate filter membranes in transwell dishes and grown for 3-5 days, yielding a polarized monolayer with tight junctions between cells. […] The left set of bars depicts apical to basolateral transport, while the right set of bars depicts basolateral to apical transport.

[1] = 2.5 nM 3H-vinblastine, in the presence of 250 μM verapamil versus absence, FIG. 6

T2 sequence (P08183 whole entry): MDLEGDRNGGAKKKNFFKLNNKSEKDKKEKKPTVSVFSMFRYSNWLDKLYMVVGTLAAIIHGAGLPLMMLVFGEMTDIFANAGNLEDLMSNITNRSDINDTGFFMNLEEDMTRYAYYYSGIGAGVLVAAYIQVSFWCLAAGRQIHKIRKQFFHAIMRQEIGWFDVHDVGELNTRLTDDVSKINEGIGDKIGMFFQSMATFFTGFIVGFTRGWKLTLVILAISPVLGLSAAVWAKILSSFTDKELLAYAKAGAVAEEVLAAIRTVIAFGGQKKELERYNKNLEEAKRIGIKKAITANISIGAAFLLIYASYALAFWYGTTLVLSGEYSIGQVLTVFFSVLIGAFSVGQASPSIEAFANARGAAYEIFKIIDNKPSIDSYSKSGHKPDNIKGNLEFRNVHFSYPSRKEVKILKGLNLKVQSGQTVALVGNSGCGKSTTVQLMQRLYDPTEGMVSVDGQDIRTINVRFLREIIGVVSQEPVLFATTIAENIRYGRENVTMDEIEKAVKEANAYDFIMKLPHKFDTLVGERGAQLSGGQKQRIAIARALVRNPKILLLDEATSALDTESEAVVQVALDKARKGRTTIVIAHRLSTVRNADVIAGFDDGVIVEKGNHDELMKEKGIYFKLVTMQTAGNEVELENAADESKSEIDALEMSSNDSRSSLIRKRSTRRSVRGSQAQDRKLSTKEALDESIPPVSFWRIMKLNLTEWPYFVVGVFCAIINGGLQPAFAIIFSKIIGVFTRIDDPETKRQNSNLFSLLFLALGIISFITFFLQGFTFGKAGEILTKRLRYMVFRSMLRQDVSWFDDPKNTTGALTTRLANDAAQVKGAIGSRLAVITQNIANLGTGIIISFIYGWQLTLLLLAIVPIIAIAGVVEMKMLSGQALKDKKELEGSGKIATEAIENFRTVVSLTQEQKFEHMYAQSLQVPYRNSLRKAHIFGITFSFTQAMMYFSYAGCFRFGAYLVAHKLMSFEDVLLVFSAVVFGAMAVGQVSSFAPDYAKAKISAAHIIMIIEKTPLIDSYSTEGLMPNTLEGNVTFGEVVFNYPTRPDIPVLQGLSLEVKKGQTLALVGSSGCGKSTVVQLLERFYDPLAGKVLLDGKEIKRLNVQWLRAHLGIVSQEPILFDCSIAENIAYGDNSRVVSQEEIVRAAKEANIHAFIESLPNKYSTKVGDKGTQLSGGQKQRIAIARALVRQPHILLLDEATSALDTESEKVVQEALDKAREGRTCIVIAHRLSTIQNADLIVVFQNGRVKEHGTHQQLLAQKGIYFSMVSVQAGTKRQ

Structure (SMILES): CCCN(CCC)S(=O)(=O)c1ccc(C(=O)O)cc1 [Probenecid]
- Reported Affinity for OAT3 (OAT3): 0.05 mM

Structure (SMILES): C[C@]12CC[C@@H]3c4ccc(OS(=O)(=O)O)cc4CC[C@H]3[C@@H]1CCC2=O [Estrone-3-sulphate]
- Reported Affinity for OAT3 (OAT3): 0.04 mM

Structure (SMILES): CC1(C)S[C@@H]2[C@H](NC(=O)Cc3ccccc3)C(=O)N2[C@H]1C(=O)O [Benzylpennicillin]
- Reported Affinity for OAT3 (OAT3): 0.3 mM

Structure (SMILES): CC[C@]1(O)C[C@@H]2CN(CCc3c([nH]c4ccccc34)[C@@](C(=O)OC)(c3cc4c(cc3OC)N(C)[C@H]3[C@@](O)(C(=O)OC)[C@H](OC(C)=O)[C@]5(CC)C=CCN6CC[C@]43[C@@H]65)C2)C1 [^3H-vinblastine, vinblastine]
- apical to basolateral transport (PgP; [1]): strongly increased
- basolateral to apical transport (PgP; [1]): strongly decreased
- efflux transporter substrate status (PgP; conclusion from transwell transport with and without verapamil): substrate of PgP

Structure (SMILES): C[C@@H]1Cc2c(Cl)cc(C(=O)N[C@@H](Cc3ccccc3)C(=O)O)c(O)c2C(=O)O1 [Ochratoxin A]
- Reported Affinity for OAT3 (OAT3): 0.05 mM

From patent publication US20050170392A1, “OAT3 transporters expressed in blood brain barrier cells” (priority 2004, published 2005)
